Results published in patent US7172889B2, “Biological compositions and methods for treatment of cervical cancer” (Ultra Biotech Limited, priority 2003, dated 2007).

Experiments:
[1] = system: cervical cancer cell line U14; test: Tumor growth in mice of the 615 strain transplanted with cervical cancer cell line U14 (Example 6); assay type: in vivo, mice from the 615 strain; details: U14 tumor-bearing 615 mice, 30 consecutive days of treatment, sacrificed on 31st day; AY/NY 0.3 ml oral once per day, MMC 0.8 mg/kg/day s.c.
Description: The following example illustrates the benefit of a biological composition of the invention in a model of human cervical cancer in mice from the 615 strain. The growth of the tumor in the mice was studied.
(§1) The cervical cancer cell line U14 was used in the model which closely resembles the human cervical cancer pathology. Detailed description of the use of cervical cancer cell line U14 can be found in Tao G. et al., 2001, Chin Med J. 114(6):623–7, which is incorporated herein by reference in its entirety.
(§2) The biological composition comprising 10^8 cells per ml of activated and conditioned yeast cells of the strain Saccharomyces carlsbergensis Hansen strain AS2.444 was prepared by the methods described in Section 5.1 and subsections therein.
The animals used to generate the cervical cancer cells for the experiments were female mice from the 615 strain (obtainable from the Chinese Academy of Military Medical Sciences, Beijing, China) having an average body weight of 20 to 22 gram and 4 to 6 months old. […]
The mice received the biological composition, untreated yeast cells, MMC or saline on the same day as the tumor cells were transplanted. […] The weight of the mice and the weight of the tumor were determined by standard techniques.

[2] = system: cervical cancer cell line U14; test: Survival of mice of the 615 strain transplanted with cervical cancer cell line U14 (Example 7); assay type: in vivo; details: for Number of live animals remaining in the groups after 30 days of treatment: 30 mice per group, 2AY/2NY 0.5 ml oral per day, 2MMC 1.2 mg/kg/day s.c.
Procedure: The following example illustrates the benefit of a biological composition of the invention in a model of human cervical cancer in mice from the 615 strain. The survival time of mice after tumor injection and treatment was studied.
as §2
The animals were prepared in a similar manner as described in Section 6.1.
(§3) The mice injected with tumor cells were immediately divided into 4 experimental groups of ten mice per group and one control group. The four experimental groups were triplicated (i.e., using a total of 120 mice in the experimental groups). In group 2AY, the mice received 0.5 ml of the biological composition once per day. In group 2NY, the mice received 0.5 ml of the untreated yeast cells once per day. In group 2MMC, the mice were injected subcutaneously with 1.2 mg of mitomycin C (MMC) per kg body weight per day. In group 2CK1, the mice received 0.5 ml of physiological saline once per day.
(§4) The mice received the biological composition, untreated yeast cells, MMC or saline on the same day as the tumor cells were transplanted. The mice in group 2CK2 also started receiving saline on the same day as the other four groups. The biological composition, untreated yeast cells and saline were administered orally by a feeding tube and the MMC by subcutaneous injection for 30 consecutive days. The mice were observed over 6 months from the day of tumor inoculation and survival was recorded. The weight of the mice and the weight of the tumor were determined by standard techniques.

[3] = system: cervical cancer cell line U27; test: Tumor growth in kun ming mice transplanted with cervical cancer cell line U27 (Example 8); assay type: in vivo, kun ming mouse; details: U27 tumor-bearing kun ming mice, 30 consecutive days of treatment, sacrificed on 31st day; AY/NY 0.3 ml oral once per day, VCR 3 mg/kg/day i.v.
Description: The following example illustrates the benefit of a biological composition of the invention in a kun ming mouse model of human cervical cancer. The growth of the tumor in the mice was studied.
as §1, with “U27” for “U14”, “Qian S. S.” for “Tao G.”, “1987, Zhongguo Yi Xue Ke Xue Yuan Xue Bao 9(1):33–7,” for “2001, Chin Med J. 114(6):623–7,”
as §2
The animals used to generate the cervical cancer cells for the experiments were female kun ming mouse (obtainable from the Chinese Academy of Military Medical Sciences, Beijing, China) having an average body weight of 20 to 22 gram and 5 to 6 months old. […]
The mice received the biological composition, untreated yeast cells, VCR or saline on the same day as the tumor cells were transplanted. […] The weight of the mice and the weight of the tumor were determined by standard techniques.

[4] = system: cervical cancer cell line U27; test: Survival of kun ming mice transplanted with cervical cancer cell line U27 (Example 9); assay type: in vivo; details: for Number of live animals remaining in the groups after 30 days of treatment: 30 mice per group, 2AY/2NY 0.5 ml oral per day, 2VCR 4.5 mg/kg/day i.v.
Procedure: The following example illustrates the benefit of a biological composition of the invention in a kun ming mouse model of human cervical cancer. The survival time of mice after tumor injection and treatment was studied.
as §2
The animals were prepared in a similar manner as described in Section 8.1.
as §3, with “2VCR,” for “2MMC,”, “intravenously” for “subcutaneously”, “4.5” for “1.2”, “[…] (VCR)” for “mitomycin C (MMC)”
as §4, with “VCR” for “MMC”, “intravenous” for “subcutaneous”

[5] = 0 month after cessation of treatment
[6] = 1 month after cessation of treatment
[7] = 2 months after cessation of treatment
[8] = 3 months after cessation of treatment
[9] = 4 months after cessation of treatment
[10] = 5 months after cessation of treatment
[11] = 6 months after cessation of treatment
[12] = surviving mice after 6 months observation, U14, 615 mice, 0.5 ml oral per day (2MMC 1.2 mg/kg/day s.c.) for 30 days
[13] = surviving mice after 6 months observation, U27, kun ming mice, 0.5 ml oral per day (2VCR 4.5 mg/kg/day i.v.) for 30 days

For `CO[C@@]12[C@H](COC(N)=O)C3=C(C(=O)C(C)=C(N)C3=O)N1C[C@@H]1N[C@@H]12` [MMC, mitomycin C], the “mean weight of mice and standard deviation” value [1] was 19.3 ± 3.3 g, the “mean weight of tumor nodules and standard deviation” value [1] was 4.4 ± 2.23 mg and the “Number of live animals remaining in the groups after 30 days of treatment” value (from here on “Number of live animals remaining”) [2, 5] was 30. The “Number of live animals remaining” value [2, 6] was 30, the “Number of live animals remaining” value [2, 7] was 24 and the “Number of live animals remaining” value [2, 8] was 13. The “Number of live animals remaining” value [2, 9] was 0, the “Number of live animals remaining” value [2, 10] was 0 and the “Number of live animals remaining” value [2, 11] was 0. The “death during the experiment” value ([2]; observed over 6 months, 2NY 0.5 ml per day, 2MMC 1.2 mg/kg/day) was “all died during the experiment”, the “mean weight of mice and standard deviation” value [2, 12] was “all animals dead” and the “mean weight of tumor nodules and standard deviation” value [2, 12] was “all animals dead”.

`CC[C@]1(O)C[C@@H]2CN(CCc3c([nH]c4ccccc34)[C@@](C(=O)OC)(c3cc4c(cc3OC)N(C)[C@H]3[C@@](O)(C(=O)OC)[C@H](OC(C)=O)[C@]5(CC)C=CCN6CC[C@]43[C@@H]65)C2)C1` [VCR, vinblastine] was tested, and the “mean weight of mice and standard deviation” value [3] was 18.5 ± 3.7 g, the “mean weight of tumor nodules and standard deviation” value [3] was 4.77 ± 2.79 g and the “Number of live animals remaining” value [4, 5] was 30. The “Number of live animals remaining” value [4, 6] was 30, the “Number of live animals remaining” value [4, 7] was 22 and the “Number of live animals remaining” value [4, 8] was 17. The “Number of live animals remaining” value [4, 9] was 4, the “Number of live animals remaining” value [4, 10] was 0 and the “Number of live animals remaining” value [4, 11] was 0. For the same compound, the “death during the experiment” value ([4]; observed over 6 months, 2NY 0.5 ml per day, 2VCR 4.5 mg/kg/day) was “all died during the experiment”, the “mean weight of mice and standard deviation” value [4, 13] was “all animals dead” and the “mean weight of tumor nodules and standard deviation” value [4, 13] was “all animals dead”.
